Measurements taken from ChEMBL document CHEMBL1150616, “Schizopeptin 791, a new anabeanopeptin-like cyclic peptide from the cyanobacterium Schizothrix sp” (J Nat Prod, 2002).
≈ marks a conversion by molar mass, not a printed value. Calls of active or inactive are those of the source. The calls are words filed in the database; no cut-off is given here.

How the values were obtained:
[1] = Inhibition of trypsin
[2] = Inhibition of chymotrypsin at 45 ug/mL

Q: Which IC50 [1] does the source give for `CC[C@H](C)[C@H](NC(=O)N[C@@H]1CCCCNC(=O)[C@H](Cc2ccccc2)NC(=O)[C@H](C)N(C)C(=O)[C@H](CCc2ccccc2)NC(=O)[C@H]([C@@H](C)CC)NC1=O)C(=O)O` [Schizopeptin 791] here?
A: Its IC50 is 45 µg/mL (≈ 56.8 µM).

Q: And the Activity [2]?
A: The Activity was “inactive”.
